# In US20170101407A1, “6-CHLORINE-SUBSTITUTED IMIDAZO[1,2-A]PYRIDINE CARBOXAMIDES AND THE USE THEREOF AS SOLUBLE GUANYLATE CYCLASE STIMULATORS” (Bayer Pharma Aktiengesellschaft, priority 2014, published 2017):
# Tested on: recombinant guanylate cyclase reporter cell line
# Assay: Effect on a recombinant guanylate cyclase reporter cell line
# Type: cell-based
# Conditions: in some cases mean values for individual determinations
# Procedure: B-2. Effect on a Recombinant Guanvlate Cyclase Reporter Cell Line
# The cellular activity of the compounds according to the invention is determined using a recombinant guanylate cyclase reporter cell line, as described in F. Wunder et al., Anal. Biochem. 339, 104-112 (2005).
# Representative MEC values (MEC=minimum effective concentration) for the compounds of the invention are shown in the table below (in some cases as mean values for individual determinations): […]
row,Structure (SMILES),MEC (minimum effective concentration)
1,"Cc1nc2c(OCc3c(F)cccc3F)cc(Cl)cn2c1C(=O)NCC(C)(N)CCF (racemic) [Example 7, rac-N-(2-Amino-4-fluoro-2-methylbutyl)-6-chloro-8-[(2,6-difluorobenzyl)oxy]-2-methylimidazo[1,2-a]pyridine-3-carboxamide (racemate)]",0.1 µM
2,"Cc1nc2c(OCc3c(F)cccc3F)cc(Cl)cn2c1C(=O)NCC(C)(N)CCCF (single isomer, unassigned; enantiomer a) [Example 3, ent-N-(2-Amino-5-fluoro-2-methylpentyl)-6-chloro-8-[(2,6-difluorobenzyl)oxy]-2-methylimidazo[1,2-a]pyridine-3-carboxamide (enantiomer A)]",0.1 µM
3,"Cc1nc2c(OCc3c(F)cccc3F)cc(Cl)cn2c1C(=O)NCC(C)(N)CC(F)F (single isomer, unassigned; enantiomer a) [Example 5, ent-N-(2-Amino-4,4-difluoro-2-methylbutyl)-6-chloro-8-[(2,6-difluorobenzyl)oxy]-2-methylimidazo[1,2-a]pyridine-3-carboxamide (enantiomer A)]",0.3 µM
4,"Cc1nc2c(OCc3c(F)cccc3F)cc(Cl)cn2c1C(=O)NCC(C)(N)CCF (single isomer, unassigned; enantiomer a) [Example 8, ent-N-(2-Amino-4-fluoro-2-methylbutyl)-6-chloro-8-[(2,6-difluorobenzyl)oxy]-2-methylimidazo[1,2-a]pyridine-3-carboxamide (enantiomer A)]",0.1 µM
5,"Cc1nc2c(OCc3c(F)cccc3F)cc(Cl)cn2c1C(=O)NCC(C)(N)CF (single isomer, unassigned; enantiomer b) [Example 1, ent-N-(2-Amino-3-fluoro-2-methylpropyl)-6-chloro-8-[(2,6-difluorobenzyl)oxy]-2-methylimidazo[1,2-a]pyridine-3-carboxamide (enantiomer B)]",0.3 µM
6,"Cc1nc2c(OCc3c(F)cccc3F)cc(Cl)cn2c1C(=O)NCC(C)(N)CCC(F)(F)F (single isomer, unassigned; enantiomer b) [Example 2, ent-N-(2-Amino-5,5,5-trifluoro-2-methylpentyl)-6-chloro-8-[(2,6-difluorobenzyl)oxy]-2-methylimidazo[1,2-a]pyridine-3-carboxamide (enantiomer B)]",0.3 µM
7,"Cc1nc2c(OCc3c(F)cccc3F)cc(Cl)cn2c1C(=O)NCC(C)(N)CCCF (single isomer, unassigned; enantiomer b) [Example 4, ent-N-(2-Amino-5-fluoro-2-methylpentyl)-6-chloro-8-[(2,6-difluorobenzyl)oxy]-2-methylimidazo[1,2-a]pyridine-3-carboxamide (enantiomer B)]",0.1 µM
8,"Cc1nc2c(OCc3c(F)cccc3F)cc(Cl)cn2c1C(=O)NCC(C)(N)CC(F)F (single isomer, unassigned; enantiomer b) [Example 6, ent-N-(2-Amino-4,4-difluoro-2-methylbutyl)-6-chloro-8-[(2,6-difluorobenzyl)oxy]-2-methylimidazo[1,2-a]pyridine-3-carboxamide (enantiomer B)]",0.3 µM
9,"Cc1nc2c(OCc3c(F)cccc3F)cc(Cl)cn2c1C(=O)NCC(C)(N)CCF (single isomer, unassigned; enantiomer b) [Example 9, ent-N-(2-Amino-4-fluoro-2-methylbutyl)-6-chloro-8-[(2,6-difluorobenzyl)oxy]-2-methylimidazo[1,2-a]pyridine-3-carboxamide (enantiomer B)]",0.1 µM
